The source of these data is US20250034136A1 (Nimbus Wadjet, Inc., priority 2023, published 2025).

Where two headings read alike, the source gives them in different places. A value given as a limit tells only on which side of the number the result lay.

The subject of assay [1] is p21 induction in HCT116 cells. As to the kind of experiment: p21 induction in HCT116 cells. It counts as cell-based. Conditions: Homo sapiens, HCT-116, 24 h, read-out: P21_EC50. In outline:
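EC50 from non-linear curve fit of p21 immunofluorescence (800 nm), with GAPDH (700 nm) read alongside. DMSO and a reference WRN inhibitor served as low and high controls. Cells (2,000/well) got 11 compound concentrations in duplicate for 24 h at 37 °C.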

The target of assay [2] is WRN (BV08), human Werner helicase (Uniprot Q14191, amino acids 517-1235 with L1074F point mutation) (Homo sapiens (Human), UniProt Q14191, L1074F). As to the kind of experiment: WRN (BV08) ADP-Glo assay. It counts as biochemical. The conditions noted are these: class symbols A-E, read-out: ADP-Glo_hWRN_IC50. (In general: ADP-Glo turns the ADP formed in a reaction into a luminescent signal.)
Sequence of WRN (BV08), human Werner helicase (Uniprot Q14191, amino acids 517-1235 with L1074F point mutation) (Q14191 other isoform, or with tags, fused parts or gaps L1074F (already in the parent)): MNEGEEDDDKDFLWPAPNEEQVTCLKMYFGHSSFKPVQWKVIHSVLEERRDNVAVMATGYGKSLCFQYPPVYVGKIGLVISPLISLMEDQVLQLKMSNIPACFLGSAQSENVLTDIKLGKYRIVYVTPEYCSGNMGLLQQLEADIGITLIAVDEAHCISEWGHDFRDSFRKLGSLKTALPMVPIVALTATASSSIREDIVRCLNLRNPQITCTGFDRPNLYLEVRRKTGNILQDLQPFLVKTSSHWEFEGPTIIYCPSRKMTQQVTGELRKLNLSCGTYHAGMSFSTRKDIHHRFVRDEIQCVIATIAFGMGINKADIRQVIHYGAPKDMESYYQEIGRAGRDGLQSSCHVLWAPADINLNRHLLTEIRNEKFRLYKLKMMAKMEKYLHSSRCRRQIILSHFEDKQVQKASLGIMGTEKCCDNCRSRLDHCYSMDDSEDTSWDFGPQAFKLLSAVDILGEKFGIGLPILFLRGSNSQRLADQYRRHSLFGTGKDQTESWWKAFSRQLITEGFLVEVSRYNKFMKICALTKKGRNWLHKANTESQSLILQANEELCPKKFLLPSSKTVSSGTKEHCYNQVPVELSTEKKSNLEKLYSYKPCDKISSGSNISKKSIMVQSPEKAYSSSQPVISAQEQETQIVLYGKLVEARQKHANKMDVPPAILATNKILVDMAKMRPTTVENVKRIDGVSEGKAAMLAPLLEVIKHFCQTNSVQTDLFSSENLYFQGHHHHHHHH

Setting [3] is: HCT116 cells, 24 h compound incubation.

As for `CCc1c(N2CCN(C(=O)c3ncnc(C)c3O)CC2)c(=O)c2nc(NC)cnc2n1CC(=O)Nc1ccc(C(F)(F)F)cc1Cl` [I-20, N-(2-chloro-4-(trifluoromethyl)phenyl)-2-(6-ethyl-7-(4-(5-hydroxy-6-methylpyrimidine-4-carbonyl)piperazin-1-yl)-2-(methylamino)-8-oxopyrido[2,3-b]pyrazin-5(8H)-yl)acetamide], the EC50 in assay [1] (setting [3]) is greater than 5000 nM. The IC50 in assay [2] is 5 to 50 nM.
For `CCc1c(N2CCN(C(=O)c3ncc4c(c3O)OCC4)CC2)c(=O)c2nc(N(C)C3CC3)cnc2n1CC(=O)Nc1ccc(C(F)(F)F)cc1Cl` [I-203, N-[2-chloro-4-(trifluoromethyl)phenyl]-2-{2-[cyclopropyl(methyl)amino]-6-ethyl-7-(4-{7-hydroxy-2H,3H-furo[3,2-c]pyridine-6-carbonyl}piperazin-1-yl)-8-oxo-5H,8H-pyrido[2,3-b]pyrazin-5-yl}acetamide] the same measures were 500 to 2000 nM and no more than 5 nM.
The like results for `CCc1c(N2CCN(C(=O)c3ncnc(C)c3O)[C@H]3CC[C@@H]32)c(=O)c2nc(N3CC[C@@H]4C[C@@H]43)cnc2n1CC(=O)Nc1ccc(C(F)(F)F)cc1Cl` (single isomer, unassigned) [I-220] were, in that order, less than 500 nM and no more than 5 nM.
As for `CCc1c(N2CCN(C(=O)c3ncnc(C)c3O)CC2)c(=O)c2nc(-c3ccnc(OC)c3)c(C)nc2n1CC(=O)Nc1ccc(C(F)(F)F)cc1Cl` [I-65, N-(2-chloro-4-(trifluoromethyl)phenyl)-2-(6-ethyl-7-(4-(5-hydroxy-6-methylpyrimidine-4-carbonyl)piperazin-1-yl)-2-(2-methoxypyridin-4-yl)-3-methyl-8-oxopyrido[2,3-b]pyrazin-5(8H)-yl)acetamide], in assay [1] (setting [3]), the EC50 was greater than 5000 nM. Further, in assay [2], the IC50 lay within 5 to 50 nM.
The like results for `CCc1c(N2CCN(C(=O)c3ncnc(C)c3O)[C@H]3CCC[C@@H]32)c(=O)c2nc(N(C)C)cnc2n1CC(=O)Nc1ccc(C(F)(F)F)cc1Cl` [I-130, 2-{7-[(4aS,7aS)-4-(5-hydroxy-6-methylpyrimidine-4-carbonyl)-octahydro-1H-cyclopenta[b]pyrazin-1-yl]-2-(dimethylamino)-6-ethyl-8-oxo-5H,8H-pyrido[2,3-b]pyrazin-5-yl}-N-[2-chloro-4-(trifluoromethyl)phenyl]acetamide] were, in that order, less than 500 nM and 5 to 50 nM.
The like results for `CCc1c(N2CCN(C(=O)c3ncnc(C)c3O)[C@H]3CC[C@@H]32)c(=O)c2nc(-c3cn[nH]c3)cnc2n1CC(=O)Nc1ccc(C(F)(F)F)cc1Cl` [I-268, N-[2-chloro-4-(trifluoromethyl)phenyl]-2-{6-ethyl-7-[(1S,6S)-5-(5-hydroxy-6-methylpyrimidine-4-carbonyl)-2,5-diazabicyclo[4.2.0]octan-2-yl]-8-oxo-2-(1H-pyrazol-4-yl)-5H,8H-pyrido[2,3-b]pyrazin-5-yl}acetamide] were, in that order, less than 500 nM and no more than 5 nM.
The like results for `CCc1c(C2=CCN(C(=O)c3ncnc(C)c3O)CC2)c(=O)c2nc(N(C)C)cnc2n1CC(=O)Nc1ccc(C(F)(F)F)cc1Cl` [I-213, N-[2-chloro-4-(trifluoromethyl)phenyl]-2-[2-(dimethylamino)-6-ethyl-7-[1-(5-hydroxy-6-methylpyrimidine-4-carbonyl)-1,2,3,6-tetrahydropyridin-4-yl]-8-oxo-5H,8H-pyrido[2,3-b]pyrazin-5-yl]acetamide] were, in that order, 500 to 2000 nM and 5 to 50 nM.
In the case of `CCc1c(N2CCN(C(=O)c3ncnc(C)c3O)[C@@H]3CCC[C@@H]32)c(=O)c2nc(N(C)C)cnc2n1CC(=O)Nc1ccc(C(F)(F)F)cc1Cl` (single isomer, unassigned) [I-209, N-(2-chloro-4-(trifluoromethyl)phenyl)-2-(2-(dimethylamino)-6-ethyl-7-(4-(5-hydroxy-6-methylpyrimidine-4-carbonyl)octahydro-1H-cyclopenta[b]pyrazin-1-yl)-8-oxopyrido[2,3-b]pyrazin-5(8H)-yl)acetamide], in assay [1] (setting [3]), the EC50 was less than 500 nM. Moreover, in assay [2], the IC50 was 5 to 50 nM.
For `CCc1c(N2CCN(C(=O)c3ncnc(C)c3O)CC2)c(=O)c2nc(C(N)=O)cnc2n1CC(=O)Nc1ccc(C(F)(F)F)cc1Cl` [I-50, 5-(2-((2-chloro-4-(trifluoromethyl)phenyl)amino)-2-oxoethyl)-6-ethyl-7-(4-(5-hydroxy-6-methylpyrimidine-4-carbonyl)piperazin-1-yl)-8-oxo-5,8-dihydropyrido[2,3-b]pyrazine-2-carboxamide] the same measures were greater than 5000 nM and 50 to 100 nM.
The like results for `CCc1c(N2CCN(C(=O)c3ncnc(C)c3O)[C@H]3CC[C@@H]32)c(=O)c2nc(N3CCC4(COC4)C3)cnc2n1CC(=O)Nc1ccc(C(F)(F)F)cc1Cl` [I-290, N-[2-chloro-4-(trifluoromethyl)phenyl]-2-{6-ethyl-7-[(1S,6S)-5-(5-hydroxy-6-methylpyrimidine-4-carbonyl)-2,5-diazabicyclo[4.2.0]octan-2-yl]-2-{2-oxa-6-azaspiro[3.4]octan-6-yl}-8-oxo-5H,8H-pyrido[2,3-b]pyrazin-5-yl}acetamide] were, in that order, less than 500 nM and 5 to 50 nM.
For `CCc1c(N2CCN(C(=O)c3ccc4cn[nH]c4c3O)CC2)c(=O)c2ncc(C)nc2n1CC(=O)Nc1ccc(C(F)(F)F)cc1Cl` [I-33, N-(2-chloro-4-(trifluoromethyl)phenyl)-2-(6-ethyl-7-(4-(7-hydroxy-1H-indazole-6-carbonyl)piperazin-1-yl)-3-methyl-8-oxopyrido[2,3-b]pyrazin-5(8H)-yl)acetamide] the same measures were greater than 5000 nM and 5 to 50 nM.
For `CCc1c(N2CCN(C(=O)c3ncnc(C)c3O)CC2)c(=O)c2nc(N(C)C)c(F)cc2n1CC(=O)Nc1ccc(C(F)(F)F)cc1Cl` [I-109, N-(2-chloro-4-(trifluoromethyl)phenyl)-2-(6-(dimethylamino)-2-ethyl-7-fluoro-3-(4-(5-hydroxy-6-methylpyrimidine-4-carbonyl)piperazin-1-yl)-4-oxo-1,5-naphthyridin-1(4H)-yl)acetamide], the EC50 in assay [1] fell in the range of 500 to 2000 nM. The IC50 in assay [2] fell in the range of 5 to 50 nM.
On to `CCc1c(N2CCN(C(=O)c3ncnc(C)c3O)CC2)c(=O)c2nc(OC3CC3)cnc2n1CC(=O)Nc1ccc(C(F)(F)F)cc1Cl` [I-195, N-[2-chloro-4-(trifluoromethyl)phenyl]-2-{2-cyclopropoxy-6-ethyl-7-[4-(5-hydroxy-6-methylpyrimidine-4-carbonyl)piperazin-1-yl]-8-oxo-5H,8H-pyrido[2,3-b]pyrazin-5-yl}acetamide], for which the EC50 in assay [1] (setting [3]) is 2000 to 5000 nM. Further, the IC50 in assay [2] was 5 to 50 nM.
For `CCc1c(N2CCN(C(=O)c3ncnc(C)c3O)CC2)c(=O)c2nc(N3CCC4(COC4)C3)cnc2n1CC(=O)Nc1ccc(C(F)(F)F)cc1Cl` [I-163, N-[2-chloro-4-(trifluoromethyl)phenyl]-2-{6-ethyl-7-[4-(5-hydroxy-6-methylpyrimidine-4-carbonyl)piperazin-1-yl]-2-{2-oxa-6-azaspiro[3.4]octan-6-yl}-8-oxo-5H,8H-pyrido[2,3-b]pyrazin-5-yl}acetamide] the same measures were greater than 5000 nM and 5 to 50 nM.
